# Test results from US20190209548A1, “LINKED DIARYL COMPOUNDS WITH ANTICANCER PROPERTIES AND METHODS OF USING THE SAME” (University of Maryland, College Park, priority 2014, published 2019).
# Read-outs that look alike come from different tables or passages of the source.
# What was measured:
# A431 = details: read-out: IC50 of cisplatin; cited from earlier work
# MCF-7/DX = details: read-out: IC50 of cisplatin; cited from earlier work
# RD = details: read-out: IC50 of cisplatin; cited from earlier work
# Hep2 = details: read-out: IC50 of cisplatin; cited from earlier work
# HT1080 = details: read-out: IC50 of cisplatin; cited from earlier work
# SH-SY5Y = details: read-out: IC50 of cisplatin; cited from earlier work
# CAPAN-1 = details: read-out: IC50 of cisplatin; cited from earlier work
# PC-3 = experiment: WST-1 IC50 determination, PC-3; assay type: cell-based, human
# Description: (§1) Cell lines and culturing. The following human cell lines were purchased from ATCC (ATCC, Manassas, Va.): prostate cancer cells (PC-3), triple negative breast cancer cells (MDA-MB-231), ovarian cancer cells (OVCAR-3), normal bone marrow (NBM) and normal fibroblast cells (MCR5A). MDA-MB-231 cells were grown at 37° C. with 5% CO2 atmosphere with DMEM (Life technologies, Carlsbad, Calif.) supplemented with heat-inactivated 10% (V/V) fetal bovine serum. OVCAR-3 and PC-3 cells were grown at 37° C. with 5% CO2 atmosphere with RPMI (Life technologies, Carlsbad, Calif.) supplemented with heat-inactivated 10% (V/V) fetal bovine serum. Cell lines were grown and maintained according to ATCC recommendations.
# (§2) IC50 determination. Cell lines were seeded into 96-well plates the afternoon prior to treatment. Cell seeding number was determined by growing cells in log phase growth during drug treatment. Approximately 18 hours later, compounds were semi-serially diluted in dimethyl sulfoxide (DMSO) and then growth medium, and added to cells. Plates were incubated for 72 hours prior to addition of WST-1 (Promega, Madison Wis.). Plates were read after 4 additional hours of incubation at 37° C. using a Bio-Tek Synergy HT plate reader (Bio-Tek, Winooski, Vt.). Data was analyzed, graphed and IC50s generated using GraphPad Prism Software (Graphpad, La Jolla, Calif.).
# (§3) IC50 determination: For the determination of IC50 for the azolamide class, the same protocol as described previously was followed.
# PANC-1 = details: read-out: IC50 of cisplatin; cited from earlier work
# PNT1 = details: read-out: IC50 of cisplatin; cited from earlier work
# MDA-MB-231 = experiment: WST-1 IC50 determination, MDA-MB-231; assay type: cell-based, human
# Description: as §1, §2, §3
# SAOS-2 = details: read-out: IC50 of cisplatin; cited from earlier work
# HOS = details: read-out: IC50 of cisplatin; cited from earlier work
# Calu-3 = details: read-out: IC50 of cisplatin; cited from earlier work
# HT29 = details: read-out: IC50 of cisplatin; cited from earlier work
# A375 = details: read-out: IC50 of cisplatin; cited from earlier work
# PC3 = details: read-out: IC50 of cisplatin; cited from earlier work
# SW872 = details: read-out: IC50 of cisplatin; cited from earlier work
# OVCAR-3 = experiment: WST-1 IC50 determination, OVCAR-3; assay type: cell-based, human
# Description: as §1, §2, §3
# CFPAC-1 = details: read-out: IC50 of cisplatin; cited from earlier work
# U2-OS = details: read-out: IC50 of cisplatin; cited from earlier work
# Tolerability studies = assay type: in vivo; details: mice, 10 mg/Kg
# MOLM14 = experiment: WST-1 IC50 determination, MOLM14; assay type: cell-based; details: Homo sapiens
# Description: as §2, §3
# [1] = Human liver microsome stability; assay type: in vitro ADME; details: human, liver microsomes
# From the text: An established method to determine the pharmacokinetic clearance of a compound in humans is to measure the degradation of the compound in the presence of human liver microsomes. The following is the half-lives of the four compounds in human liver microsomes: […]
# THP1 = experiment: WST-1 IC50 determination, THP1; assay type: cell-based; details: Homo sapiens, THP-1; THP1, 72 h; read-out: IC50 for killing Leukemia cell line
# Description: as §2, §3
# U87 = experiment: IC50 determination, U87; assay type: cell-based; details: Homo sapiens, U-87 MG; Glioblastoma; read-out: Anticancer activities, U87
# Description: as §2, §3
# NBM = experiment: WST-1 IC50 determination, normal bone marrow; assay type: cell-based, human
# Description: as §1, §2, §3
# MV4-11 = experiment: IC50 determination, MV4-11; assay type: cell-based; details: Homo sapiens, Acute monocyctic leukemia, read-out: Anticancer activities, MV4-11
# Description: as §2, §3
# [2] = test system: triple-negative breast cancer cells; experiment: Cancer cell migration; assay type: cell-based; details: increasing concentration
# From the text: FIG. 36. […] Red=negative control—no FCS in bottom well. Green=DMSO. Blue and pink=increasing concentration of 630-1.
# MCR5A = experiment: WST-1 IC50 determination, normal fibroblast; assay type: cell-based, human; details: normal fibroblast cell, 72 hours, read-out: IC50 ± SD, MCR5A
# Description: as §1, §2
# G-quadruplexes = details: binding of classic G-tetrad-motif ligand to G-quadruplexes; cited from earlier work
# c-kit2 = experiment: FRET melting assay, c-kit2; assay type: binding; details: 0.2 μM dual-labeled DNA and 0.2 μM TMPyP4
# c-MYC = experiment: FRET melting assay, c-MYC; assay type: binding; details: 0.2 μM dual-labeled DNA and 0.2 μM TMPyP4
# k-RAS21R = experiment: FRET melting assay, k-RAS21R; assay type: binding; details: 0.2 μM dual-labeled DNA and 0.2 μM TMPyP4
# c-MYC Pu27 = experiment: PCR stop assay, Pu27 template; assay type: biochemical; details: 10 μM compound
# Description: (§4) PCR Stop Assay. This assay was performed by modifying a previously published protocol.
# (§5) To the PCR reaction mixture (25 μL), 1×PCR buffer (New England Biolabs), 5 μM Pu27 and Pu27rev oligomers, various concentrations of ligands (DMZ, TMPyP4, DMZ1, DMZ9 and DMZ13) were added and incubated at 4° C. for 6 h. After that, 1 mM dNTPs, 5 units of Taq DNA polymerase (New England Biolabs) were added and PCR reactions were performed in a thermocycler, with the following conditions: 94° C. for 3 min, followed by 20 repeated cycles each having 94° C. for 30 s, 58° C. for 30 s, and 72° C. for 30 s. After PCR, amplified products were analyzed on 12% polyacrylamide gel with 1×TBE and SYBR Gold stained. This assay was also performed under the same conditions with Pu27-13,14 and Pu27rev.
# Pu27-13,14 = experiment: PCR stop assay, mutated control template; assay type: biochemical; details: 10 μM compound
# Description: as §4, §5
# F21T = experiment: FRET melting assay, F21T; assay type: binding; details: 0.2 μM dual-labeled DNA and 0.2 μM TMPyP4
# duplex = experiment: FRET melting assay, duplex DNA; assay type: binding; details: 0.2 μM dual-labeled DNA and 0.2 μM TMPyP4
# [3] = test system: G-quadruplex DNAs (c-kit1, VEGF, bcl-2 2345 and TBA); experiment: UV-visible titration with G-quadruplex DNA; assay type: binding; details: UV-visible titration conditions
# Description: UV titration studies of DNA with the triazene ligands, DMZ and Triazene-1. The molar extinction coefficients at 260 nm for 22-mer c-kit1, 18-mer VEGF, 23-mer bcl-2 2345, 15-mer TBA and 20-mer 8 bp AT are as follows 226,700 M^−1 cm^−1, 169,800 M^−1 cm^−1, 227,300 M^−1 cm^−1, 143,300 M^−1 cm^1 and 205,500 M^−1 cm^−1, respectively. The concentration of ligands used in this study was 10 μM and the DNA concentrations were 0, 0.25, 1.5, 3, 5, 6, 7, 8, 9, 10, 20, 30, 40, 50, 100, and 15 μM. The buffer contained 250 mM KCl, 50 mM Tris-HCl (at pH 7.5). The following quadruplex DNA were tested: c-kit1, VEGF, bcl-2 2345, and TBA. Duplex DNA (8 bp AT) was also tested. The sample was first heated up to 95° C. for 5 min without the ligand and then cooled down to room temperature in 15 min. The ligand was then added and the mixture was incubated at 4° C. for ˜12 h before recording the data. In case of Triazene-1 and Triazene-2, the sample mixture contained 1% DMSO.
# [4] = 72 hours, WST-1, read-out: Anticancer activity IC50 ± SD, PC-3
# [5] = 72 hours, WST-1, read-out: Anticancer activity IC50 ± SD, MDA-MB-231
# [6] = 72 hours, WST-1, read-out: Anticancer activity IC50 ± SD, OVCAR-3
# [7] = Homo sapiens, PC-3, prostate cancer, read-out: Anticancer activities, PC3
# [8] = Homo sapiens, MDA-MB-231, triple negative breast cancer, read-out: Anticancer activities, TNBC 231
# [9] = Homo sapiens, Bone marrow cell, Normal bone marrow cells, read-out: Anticancer activities, NBM
smiles,measurement,setting,value
N.N.[Cl][Pt][Cl] [Cisplatin],IC50,A431,20 µM
same,IC50,MCF-7/DX,7 µM
same,IC50,RD,6 µM
same,IC50,Hep2,7 µM
same,IC50,HT1080,9 µM
same,IC50,SH-SY5Y,2 µM
same,IC50,CAPAN-1,> 50 µM
same,IC50,PC-3; [4],10.5 ± 1.3 µM
same,IC50,"PC-3; prostate cancer, read-out: Anticancer activities, PC3",10.5 µM
same,IC50,PANC-1,15 µM
same,IC50,PNT1,5 µM
same,IC50,MDA-MB-231; [5],11.7 ± 1 µM
same,IC50,"MDA-MB-231; triple negative breast cancer, read-out: Anticancer activities, TNBC 231",11.7 µM
same,IC50,SAOS-2,11 µM
same,IC50,HOS,10 µM
same,IC50,Calu-3,> 50 µM
same,IC50,HT29,22 µM
same,IC50,A375,6 µM
same,IC50,PC3,12 µM
same,IC50,SW872,5 µM
same,IC50,OVCAR-3; [6],4.1 ± 1.8 µM
same,IC50,CFPAC-1,38 µM
same,IC50,U2-OS,20 µM
N=C(N)c1ccc(/N=N/c2c(N)ncc3ccccc23)cc1 [HSW308-4],tolerability,Tolerability studies,can be tolerated
same,IC50,"MOLM14; MOLM-14, MOLM14, 72 h, read-out: IC50 for killing Leukemia cell line",0.98 µM
same,IC50,"MOLM14; MOLM-14, leukemia, read-out: Anticancer activities, Molm14",0.98 µM
same,half-life,[1]; read-out: NADPH-dependent T½,3.27 h
same,half-life,[1]; read-out: NADPH-independent T½,> 4 h
same,IC50,PC-3; [7],1.3 µM
same,IC50,"PC-3; Homo sapiens, PC-3, read-out: IC50 for killing prostate cancer cell line (PC-3)",1 µM
same,IC50,THP1,2.6 µM
same,IC50,"MDA-MB-231; Homo sapiens, MDA-MB-231, read-out: IC50 for killing triple negative breast cancer cell line (231)",1.9 µM
same,IC50,MDA-MB-231; [8],1.85 µM
same,IC50,U87,1.32 µM
same,IC50,NBM; [9],8.7 µM
same,IC50,MV4-11,0.92 µM
same,IC50,"OVCAR-3; Homo sapiens, OVCAR-3, read-out: IC50 for killing ovarian cancer cell line (OVCAR-3)",4.2 µM
N=C(N)c1ccc(/N=N/c2c(N)ncc3ccc(Br)cc23)cc1 [HSW630-1],tolerability,Tolerability studies,can be tolerated
same,IC50,"MOLM14; MOLM-14, read-out: Anticancer activities, Molm14",0.14 µM
same,half-life,[1]; read-out: NADPH-dependent T½,3.18 h
same,half-life,[1]; read-out: NADPH-independent T½,2.07 h
same,IC50,PC-3; [7],0.59 µM
same,IC50,MDA-MB-231; [8],0.48 to 0.92 µM
same,migration of cancer cells,[2],prevents cancer cells from migrating
same,migration of cancer cells,[2]; listed as 630-1,can inhibit migration
same,IC50,U87,0.56 µM
same,IC50,NBM; [9],5.1 µM
same,IC50,MV4-11,0.15 µM
"C[n+]1ccc(-c2c3nc(c(-c4cc[n+](C)cc4)c4ccc([nH]4)c(-c4cc[n+](C)cc4)c4ccc([nH]4)c(-c4cc[n+](C)cc4)c4nc2C=C4)C=C3)cc1 [TMPyP4, reference compound]",IC50,MCR5A,15.2 ± 6.6 µM
same,Ka,G-quadruplexes,≈ 5×10^6 M^−1
same,ΔTm c-kit2,c-kit2,3.46 ± 1.03 °C
same,IC50,PC-3; [4],14 ± 5.4 µM
same,IC50,MDA-MB-231; [5],14.3 ± 4 µM
same,ΔTm c-MYC,c-MYC,23.75 ± 0.52 °C
same,ΔTm k-RAS21R,k-RAS21R,34.71 ± 0.93 °C
same,polymerization/extension of oligomers Pu27 and Pu27rev,c-MYC Pu27,showed inhibition
same,IC50,"NBM; normal bone marrow, 72 hours, WST-1, read-out: IC50 ± SD, NBM",16.8 µM
same,IC50,OVCAR-3; [6],14.6 ± 5.7 µM
same,PCR product with non-G-quadruplex template,"Pu27-13,14",no PCR product was observed
same,ΔTm F21T,F21T,4.01 ± 0.26 °C
same,ΔTm duplex,duplex,1.14 ± 0.52 °C
c1ccc(N=NNc2ccccc2)cc1 [Triazene-2],self-aggregation,[3],exhibited self-aggregation
